Reference: ChEMBL document CHEMBL1132842, “Novel antifungals based on 4-substituted imidazole: solid-phase synthesis of substituted aryl sulfonamides towards optimization of in vitro activity” (Bioorg Med Chem Lett, 2000)
Converted amounts (≈) assume the structure as drawn.

Columns and labels:
[1] = tested on: mold; assay: Concentration required to inhibit growth of pathogenic molds; format: functional
[2] = tested on: Saccharomyces cerevisiae; assay: Concentration required to inhibit 65% growth of selected sets of Yeasts; format: functional
[3] = tested on: Aspergillus fumigatus; assay: Minimum concentration required to inhibit the growth of Aspergillus fumigatus; format: functional
[4] = tested on: Nakaseomyces glabratus; assay: Minimum concentration required to inhibit the growth of Candida glabrata; format: functional
[5] = tested on: Kluyveromyces marxianus; assay: Minimum concentration required to inhibit the growth of Candida kefyr; format: functional
[6] = tested on: Candida albicans; assay: Minimum concentration required to inhibit the growth of Candida albicans 1; format: functional
[7] = tested on: Candida albicans; assay: Minimum concentration required to inhibit the growth of Candida albicans 2; format: functional
[8] = tested on: Candida albicans; assay: Minimum concentration required to inhibit the growth of Candida albicans 4; format: functional
[9] = tested on: Candida parapsilosis; assay: Minimum concentration required to inhibit the growth of Candida parapsilosis; format: functional; conditions: Lodderomyces parapsilosis
[10] = tested on: Candida tropicalis; assay: Minimum concentration required to inhibit the growth of Candida tropicalis; format: functional
[11] = tested on: Pichia kudriavzevii; assay: Minimum concentration required to inhibit the growth of Candida krusei; format: functional
[12] = tested on: Cryptococcus neoformans; assay: Minimum concentration required to inhibit the growth of Cryptococcus neoformans; format: functional
[13] = tested on: Microsporum canis; assay: Minimum concentration required to inhibit the growth of […] canis; format: functional
[14] = tested on: Trichophyton benhamiae; assay: Minimum concentration required to inhibit the growth of Trichophyton mentagrophytes; format: functional, Arthroderma benhamiae
[15] = tested on: Trichophyton rubrum; assay: Minimum concentration required to inhibit the growth of Trichophyton rubrum; format: functional
[16] = tested on: Saccharomyces cerevisiae; assay: Concentration required to inhibit 65% growth of Yeast strains; format: functional
[17] = tested on: Sporothrix schenckii; assay: Minimum concentration required to inhibit the growth of Sporothrix schenck ii; format: functional

## CCC(CC)Nc1ccc(S(=O)(=O)N(Cc2c[nH]cn2)C(C(C)C)C(C)C)cc1
[1]
  pLADM: 4
[2]
  pLADY: 6.5

## O=S(=O)(c1ccc(-c2ccc(F)cc2)cc1)N(Cc1c[nH]cn1)CC1CCCCC1
[1]
  pLADM: 4.4
[2]
  pLADY: 6.3

## CC(C)C(C(C)C)N(Cc1c[nH]cn1)S(=O)(=O)c1ccc(-c2ccc(F)cc2)cc1
[3]
  MIC: 10 µM (≈ 4.3 µg/mL)
[4]
  MIC: 1 µM (≈ 0.43 µg/mL)
[5]
  MIC: ≤ 0.1 µM
[6]
  MIC: > 10 µM
[7]
  MIC: ≤ 0.1 µM
[8]
  MIC: 1 µM (≈ 0.43 µg/mL)
[9]
  MIC: ≤ 0.1 µM
[10]
  MIC: ≤ 0.1 µM
[11]
  MIC: 1 µM (≈ 0.43 µg/mL)
[12]
  MIC: ≤ 0.1 µM
[1]
  pLADM: 5.2
[13]
  MIC: 1 µM (≈ 0.43 µg/mL)
[14]
  MIC: 10 µM (≈ 4.3 µg/mL)
[15]
  MIC: 1 µM (≈ 0.43 µg/mL)
[16]
  pLADY: 6.8
[17]
  MIC: > 10 µM

## CC(C)C(C(C)C)N(Cc1c[nH]cn1)S(=O)(=O)c1ccc(-c2ccccc2)cc1
[1]
  pLADM: 5.2
[2]
  pLADY: 6.6

## O=S(=O)(c1ccc(N2CCCCC2)cc1)N(CCc1ccccc1F)Cc1c[nH]cn1
[1]
  pLADM: 4.2
[2]
  pLADY: 5.9

## CCCCCCN(Cc1c[nH]cn1)S(=O)(=O)c1ccc(-c2ccc(F)cc2)cc1
[1]
  pLADM: 4.8
[2]
  pLADY: 5.9

## O=S(=O)(c1ccc(N2CCOCC2)cc1)N(CCc1ccccc1F)Cc1c[nH]cn1
[1]
  pLADM: 4
[2]
  pLADY: 4.5

## O=S(=O)(c1ccc(-c2ccsc2)cc1)N(Cc1c[nH]cn1)CC1CCCCC1
[1]
  pLADM: 4.4
[2]
  pLADY: 6.1

## CN(c1ccc(S(=O)(=O)N(Cc2c[nH]cn2)CC2CCCCC2)cc1)C1CCCCC1
[1]
  pLADM: 4
[2]
  pLADY: 5.5

## O=S(=O)(c1ccc(NCCc2ccc(Cl)cc2Cl)cc1)N(Cc1c[nH]cn1)CC1CCCCC1
[1]
  pLADM: 4
[2]
  pLADY: 5.4

## O=S(=O)(c1ccc(N2CCN(c3ccc(Cl)c(Cl)c3)CC2)cc1)N(CCc1ccccc1F)Cc1c[nH]cn1
[1]
  pLADM: 4
[2]
  pLADY: 5.8

## C[C@@H](c1ncncc1F)[C@](O)(Cn1cncn1)c1ccc(F)cc1F [VORICONAZOLE]
[3]
  MIC: 1 µM (≈ 0.349 µg/mL)
[4]
  MIC: 10 µM (≈ 3.49 µg/mL)
[5]
  MIC: ≤ 0.1 µM
[6]
  MIC: > 10 µM
[7]
  MIC: ≤ 0.1 µM
[9]
  MIC: ≤ 0.1 µM
[10]
  MIC: 1 µM (≈ 0.349 µg/mL)
[11]
  MIC: 10 µM (≈ 3.49 µg/mL)
[12]
  MIC: 1 µM (≈ 0.349 µg/mL)
[13]
  MIC: 1 µM (≈ 0.349 µg/mL)
[14]
  MIC: ≤ 0.1 µM
[15]
  MIC: ≤ 0.1 µM
[17]
  MIC: > 10 µM

## O=S(=O)(c1ccc(N2CCN(c3cccc(C(F)(F)F)c3)CC2)cc1)N(Cc1c[nH]cn1)CC1CCCCC1
[1]
  pLADM: 4
[2]
  pLADY: 6.3

## COc1ccc(-c2ccc(S(=O)(=O)N(Cc3c[nH]cn3)CC3CCCCC3)cc2)cc1
[1]
  pLADM: 4.4
[2]
  pLADY: 6.3

## CCCCOc1ccc(S(=O)(=O)N(CCc2ccc(F)cc2)Cc2c[nH]cn2)cc1
[3]
  MIC: > 10 µM
[4]
  MIC: 10 µM (≈ 4.32 µg/mL)
[5]
  MIC: ≤ 0.1 µM
[6]
  MIC: > 10 µM
[7]
  MIC: ≤ 0.1 µM
[8]
  MIC: 10 µM (≈ 4.32 µg/mL)
[9]
  MIC: 1 µM (≈ 0.432 µg/mL)
[10]
  MIC: ≤ 0.1 µM
[11]
  MIC: > 10 µM
[12]
  MIC: 1 µM (≈ 0.432 µg/mL)
[13]
  MIC: 10 µM (≈ 4.32 µg/mL)
[14]
  MIC: > 10 µM
[15]
  MIC: 1 µM (≈ 0.432 µg/mL)
[17]
  MIC: > 10 µM

## O=S(=O)(c1ccc(N2CCN(c3ccc(F)cc3)CC2)cc1)N(CCc1ccccc1F)Cc1c[nH]cn1
[1]
  pLADM: 4.4
[2]
  pLADY: 6.8

## O=S(=O)(c1ccc(CN2CCN(c3ccccn3)CC2)cc1)N(Cc1c[nH]cn1)CC1CCCCC1
[1]
  pLADM: 4
[2]
  pLADY: 6.4

## O=S(=O)(c1ccc(COc2ccc(F)cc2)cc1)N(Cc1c[nH]cn1)CC1CCCCC1
[1]
  pLADM: 4.4
[2]
  pLADY: 6.1

## O=S(=O)(c1ccc(N2CCN(c3ccccn3)CC2)cc1)N(Cc1c[nH]cn1)CC1CCCCC1
[1]
  pLADM: 4
[2]
  pLADY: 6.4

## CC(=O)Nc1cccc(-c2ccc(S(=O)(=O)N(Cc3c[nH]cn3)CC3CCCCC3)cc2)c1
[1]
  pLADM: 4
[2]
  pLADY: 4.1

## CN1CCN(c2ccc(S(=O)(=O)N(Cc3c[nH]cn3)CC3CCCCC3)cc2)CC1
[1]
  pLADM: 4
[2]
  pLADY: 4.6

## Cc1ccc(N2CCN(c3ccc(S(=O)(=O)N(Cc4c[nH]cn4)CC4CCCCC4)cc3)CC2)cc1
[1]
  pLADM: 4
[2]
  pLADY: 6.3

## O=S(=O)(c1ccc(N2CCN(c3ccccc3Cl)CC2)cc1)N(CCc1ccccc1F)Cc1c[nH]cn1
[1]
  pLADM: 4.2
[2]
  pLADY: 6

## COc1ccc(-c2ccc(S(=O)(=O)N(Cc3c[nH]cn3)C(C(C)C)C(C)C)cc2)cc1
[1]
  pLADM: 5
[2]
  pLADY: 6.4

## CCCCOc1ccc(S(=O)(=O)N(Cc2c[nH]cn2)C(CC)C2CCCCC2)cc1 (stereo not given)
[3]
  MIC: > 10 µM
[4]
  MIC: 1 µM (≈ 0.434 µg/mL)
[5]
  MIC: ≤ 0.1 µM
[6]
  MIC: > 10 µM
[7]
  MIC: ≤ 0.1 µM
[8]
  MIC: ≤ 0.1 µM
[9]
  MIC: ≤ 0.1 µM
[10]
  MIC: 1 µM (≈ 0.434 µg/mL)
[11]
  MIC: 1 µM (≈ 0.434 µg/mL)
[12]
  MIC: 1 µM (≈ 0.434 µg/mL)
[13]
  MIC: 1 µM (≈ 0.434 µg/mL)
[14]
  MIC: 10 µM (≈ 4.34 µg/mL)
[15]
  MIC: 1 µM (≈ 0.434 µg/mL)
[17]
  MIC: > 10 µM

## CC(C)C(C(C)C)N(Cc1c[nH]cn1)S(=O)(=O)c1ccc(-c2ccc(Cl)cc2)cc1
[1]
  pLADM: 5.4
[2]
  pLADY: 6.4

## O=S(=O)(c1ccc(-c2ccc(Cl)cc2)cc1)N(Cc1c[nH]cn1)CC1CCCCC1
[1]
  pLADM: 4.4
[2]
  pLADY: 6.3

## O=S(=O)(c1ccc(CNCCc2ccc(Cl)cc2Cl)cc1)N(Cc1c[nH]cn1)CC1CCCCC1
[3]
  MIC: > 10 µM
[4]
  MIC: 10 µM (≈ 5.36 µg/mL)
[5]
  MIC: ≤ 0.1 µM
[6]
  MIC: 10 µM (≈ 5.36 µg/mL)
[7]
  MIC: ≤ 0.1 µM
[8]
  MIC: 1 µM (≈ 0.536 µg/mL)
[9]
  MIC: < 0.1 µM
[10]
  MIC: 1 µM (≈ 0.536 µg/mL)
[11]
  MIC: 1 µM (≈ 0.536 µg/mL)
[12]
  MIC: 1 µM (≈ 0.536 µg/mL)
[1]
  pLADM: 4.4
[13]
  MIC: 10 µM (≈ 5.36 µg/mL)
[14]
  MIC: > 10 µM
[15]
  MIC: 10 µM (≈ 5.36 µg/mL)
[16]
  pLADY: 6.5
[17]
  MIC: > 10 µM

## CC(C)C(C(C)C)N(Cc1c[nH]cn1)S(=O)(=O)c1ccc(N2CCN(c3ccc(F)cc3)CC2)cc1
[1]
  pLADM: 4
[2]
  pLADY: 6.4

## O=S(=O)(c1ccc(N2CCN(c3ccc(F)cc3)CC2)cc1)N(Cc1c[nH]cn1)CC1CCCCC1
[3]
  MIC: > 10 µM
[4]
  MIC: 10 µM (≈ 5.12 µg/mL)
[5]
  MIC: ≤ 0.1 µM
[6]
  MIC: > 10 µM
[7]
  MIC: ≤ 0.1 µM
[8]
  MIC: ≤ 0.1 µM
[9]
  MIC: ≤ 0.1 µM
[10]
  MIC: ≤ 0.1 µM
[11]
  MIC: 10 µM (≈ 5.12 µg/mL)
[12]
  MIC: 1 µM (≈ 0.512 µg/mL)
[1]
  pLADM: 4
[13]
  MIC: 10 µM (≈ 5.12 µg/mL)
[14]
  MIC: > 10 µM
[15]
  MIC: 10 µM (≈ 5.12 µg/mL)
[16]
  pLADY: 6.9
[17]
  MIC: > 10 µM

## CCC(C)n1ncn(-c2ccc(N3CCN(c4ccc(OCC5COC(Cn6cncn6)(c6ccc(Cl)cc6Cl)O5)cc4)CC3)cc2)c1=O (stereo not given) [ITRACONAZOLE]
[3]
  MIC: 1 µM (≈ 0.706 µg/mL)
[4]
  MIC: 1 µM (≈ 0.706 µg/mL)
[5]
  MIC: ≤ 0.1 µM
[6]
  MIC: > 10 µM
[7]
  MIC: ≤ 0.1 µM
[8]
  MIC: > 10 µM
[9]
  MIC: ≤ 0.1 µM
[10]
  MIC: 0.1 µM (≈ 0.0706 µg/mL)
[11]
  MIC: 1 µM (≈ 0.706 µg/mL)
[12]
  MIC: ≤ 0.1 µM
[13]
  MIC: ≤ 0.1 µM
[14]
  MIC: 0.1 µM (≈ 0.0706 µg/mL)
[15]
  MIC: ≤ 0.1 µM
[17]
  MIC: 10 µM (≈ 7.06 µg/mL)

## O=S(=O)(c1ccc(-c2ccc(F)cc2)cc1)N(Cc1c[nH]cn1)C1CCCCC1
[1]
  pLADM: 4.4
[2]
  pLADY: 5.8

## O=S(=O)(c1ccc(CNCCc2ccc(Cl)cc2Cl)cc1)N(CCc1ccc(F)cc1)Cc1c[nH]cn1
[1]
  pLADM: 4.4
[2]
  pLADY: 6.1
